Data as given in patent publication US20070093520A1, “Method of treatment of diarrhea-predominant irritable bowel syndrome in a subject” (priority 2005, published 2007).

Tested on: diarrhea-predominant IBS subjects
Test: 3007 Study: open-label 52-week safety study, adverse events and withdrawals
[1] = Cilansetron 2 mg/Cilansetron 2 mg
[2] = Cilansetron 2 mg/Cilansetron 2 mg, N=257
[3] = Cilansetron 2 mg/Cilansetron 2 mg, N=257, % of appropriate gender
[4] = Cilansetron 2 mg/Cilansetron 2 mg, gender-specific

Cc1nccn1C[C@H]1CCc2c(c3cccc4c3n2CCC4)C1=O [cilansetron, (R)-(−)-4,5,6,8,9,10-hexahydro-10-[(2-methyl-1H-imidazol-1-yl)methyl]-11H-pyrido-[3,2,1-jk]-carbazol-11-one]
3 (1%) n (%): TEAE: Urine Ketone Body Present [1] | TEAE: Urine Leukocyte Esterase Positive [1] | TEAE: Vascular Tests NEC (Incl Blood Pressure) [1] | TEAE leading to permanent discontinuation: Back Pain [2] | TEAE leading to permanent discontinuation: Fatigue [2] | TEAE leading to permanent discontinuation: General Disorders and Administration Site Conditions [2] | TEAE leading to permanent discontinuation: Nausea [2]
1 (<1%) n (%): TEAE: Urine Analysis Abnormal NOS [1] | TEAE: Urobilin Urine Present [1] | TEAE: Vasovagal Attack [1] | TEAE: Weight Decreased [1] | TEAE: White Blood Cell Count Decreased [1] | TEAE: White Blood Cells Urine Positive [1] | TEAE leading to permanent discontinuation: Abdominal Pain Aggravated [2] | TEAE leading to permanent discontinuation: Abdominal Pain Upper [2] | TEAE leading to permanent discontinuation: Alanine Aminotransferase Increased [2] | TEAE leading to permanent discontinuation: Angina Pectoris [2] | TEAE leading to permanent discontinuation: Appendicitis [2] | TEAE leading to permanent discontinuation: Asthma Aggravated [2] | TEAE leading to permanent discontinuation: Asthma NOS [2] | TEAE leading to permanent discontinuation: Blood Bilirubin Increased [2] | TEAE leading to permanent discontinuation: Blood Pressure Increased [2] | TEAE leading to permanent discontinuation: Blood Urine Present [2] | TEAE leading to permanent discontinuation: Bone Neoplasm Malignant [2] | TEAE leading to permanent discontinuation: Cardiac Disorders [2] | TEAE leading to permanent discontinuation: Dehydration [2] | TEAE leading to permanent discontinuation: Diarrhoea Aggravated [2] | TEAE leading to permanent discontinuation: Dyspepsia [2] | TEAE leading to permanent discontinuation: Ear and Labyrinth Disorders [2] | TEAE leading to permanent discontinuation: Eructation [2] | TEAE leading to permanent discontinuation: Faecal Abnormality NOS [2] | TEAE leading to permanent discontinuation: Faeces Hard [2] | TEAE leading to permanent discontinuation: Gastric Irritation [2] | TEAE leading to permanent discontinuation: Headache NOS [2] | TEAE leading to permanent discontinuation: Headache NOS Aggravated [2] | TEAE leading to permanent discontinuation: Heart Rate Increased [2] | TEAE leading to permanent discontinuation: Hepatobiliary Disorders [2] | TEAE leading to permanent discontinuation: Hepatosplenomegaly NOS [2] | TEAE leading to permanent discontinuation: Hiatus Hernia [2] | TEAE leading to permanent discontinuation: Irritable Bowel Syndrome Aggravated [2] | TEAE leading to permanent discontinuation: Metabolism and Nutrition Disorders [2] | TEAE leading to permanent discontinuation: Migraine NOS [2] | TEAE leading to permanent discontinuation: Pregnancy, Puerperium and Perinatal Conditions [2] | TEAE leading to permanent discontinuation: Pruritus NOS [2] | TEAE leading to permanent discontinuation: Skin and Subcutaneous Tissue Disorders [2] | TEAE leading to permanent discontinuation: Somnolence [2] | TEAE leading to permanent discontinuation: Vertigo [2] | TEAE leading to permanent discontinuation: Vomiting NOS [2] | TEAE leading to permanent discontinuation: White Blood Cells Urine Positive [2] | TEAE leading to permanent discontinuation: Ovarian Cancer NOS* [3] | TEAE leading to permanent discontinuation: Pregnancy NOS* [3] | TEAE: Smear Cervix Abnormal* [4] | TEAE: Vaginal Candidiasis* [4] | TEAE: Vaginitis Bacterial NOS* [4] | TEAE: Vaginitis* [4] | TEAE: Vaginosis Fungal NOS* [4] | TEAE: Abdominal Discomfort (Overall) | TEAE: Abdominal Rebound Tenderness (Overall) | TEAE: Abdominal Therapeutic Procedures NEC (Overall) | TEAE: Abdominoplasty (Overall) | TEAE: Abnormal Chest Sounds NOS (Overall) | TEAE: Abnormal Reflexes (Overall) | TEAE: Acne NOS (Overall) | TEAE: Acnes (Overall) | TEAE: Acrochordons (Overall) | TEAE: Adenomyosis* (Overall) | TEAE: Age Related Issues (Overall) | TEAE: Allergy to Insect Sting (Overall) | TEAE: Alopecia (Overall) | TEAE: Alopecias (Overall) | TEAE: Amenorrhoea NOS* (Overall) | TEAE: Anaemia NOS (Overall) | TEAE: Anaemias NEC (Overall) | TEAE: Anal and Rectal Disorders NEC (Overall) | TEAE: Animal Bite (Overall) | TEAE: Appendicitis (Overall) | TEAE: Arrhythmia NOS (Overall) | TEAE: Arthritis NOS Aggravated (Overall) | TEAE: Arthropod Sting (Overall) | TEAE: Asthma Aggravated (Overall)
24 (9%) n (%): TEAE leading to permanent discontinuation: Gastrointestinal Disorders [2]
17 (7%) n (%): TEAE: Urinary Tract Infections [1]
15 (3%) n (%): TEAE: Abdominal Distension (Overall) | TEAE: Asthenic Conditions (Overall)
3 (<1%) n (%): TEAE: Allergic Conditions NEC (Overall) | TEAE: Angina Pectoris (Overall) | TEAE: Anxiety Aggravated (Overall) | TEAE: Apocrine and Eccrine Gland Disorders (Overall) | TEAE: Arthritis NOS (Overall)
10 (4%) n (%): TEAE: Urinalysis NEC [1]
12 (2%) n (%): TEAE: Anxiety Symptoms (Overall)
0 n (%): TEAE: Upper Limb Fractures and Dislocations [1] | TEAE: Urine Bilirubin Increased [1] | TEAE: Vascular Auscultatory Investigations [1] | TEAE leading to permanent discontinuation: Abdominal Pain Lower [2] | TEAE leading to permanent discontinuation: Bladder Prolapse [2] | TEAE leading to permanent discontinuation: Chest Discomfort [2] | TEAE leading to permanent discontinuation: Chest Pain [2] | TEAE leading to permanent discontinuation: Chest Wall Pain [2] | TEAE leading to permanent discontinuation: Colitis Ischaemic [2] | TEAE leading to permanent discontinuation: Cough [2] | TEAE leading to permanent discontinuation: Depression [2] | TEAE leading to permanent discontinuation: Diarrhoea Haemorrhagic [2] | TEAE leading to permanent discontinuation: Dizziness [2] | TEAE leading to permanent discontinuation: Epigastric Discomfort [2] | TEAE leading to permanent discontinuation: Eye Disorders [2] | TEAE leading to permanent discontinuation: Faecal Impaction [2] | TEAE leading to permanent discontinuation: Faecal Incontinence [2] | TEAE leading to permanent discontinuation: Fibroma NOS [2] | TEAE leading to permanent discontinuation: Gastrointestinal Motility Disorder NOS [2] | TEAE leading to permanent discontinuation: Haemorrhoidal Haemorrhage [2] | TEAE leading to permanent discontinuation: Hallucination NOS [2] | TEAE leading to permanent discontinuation: Hallucination, Auditory [2] | TEAE leading to permanent discontinuation: Lethargy [2] | TEAE leading to permanent discontinuation: Psychiatric Disorders [2] | TEAE leading to permanent discontinuation: Psychotic Disorder NOS [2] | TEAE leading to permanent discontinuation: Rash Macular [2] | TEAE leading to permanent discontinuation: Rash NOS [2] | TEAE leading to permanent discontinuation: Rectal Disorder NOS [2] | TEAE leading to permanent discontinuation: Rectal Tenesmus [2] | TEAE leading to permanent discontinuation: Renal and Urinary Disorders [2] | TEAE leading to permanent discontinuation: Stomach Discomfort [2] | TEAE leading to permanent discontinuation: Suicidal Ideation [2] | TEAE leading to permanent discontinuation: Urticaria NOS [2] | TEAE leading to permanent discontinuation: Visual Acuity Reduced [2] | TEAE leading to permanent discontinuation: Benign Ovarian Tumour* [3] | TEAE leading to permanent discontinuation: Breast Cancer NOS* [3] | TEAE leading to permanent discontinuation: Ovarian Cystadenofibroma* [3]
10 (2%) n (%): TEAE: Abdominal Pain Lower (Overall)
11 (2%) n (%): TEAE: Abdominal Pain Upper (Overall)
6 (2%) n (%): TEAE: Weight Increased [1]
14 (3%) n (%): TEAE: Alanine Aminotransferase Increased (Overall)
2 (<1%) n (%): TEAE: Viral Infection NOS [1] | TEAE leading to permanent discontinuation: Abdominal Distension [2] | TEAE leading to permanent discontinuation: Flatulence [2] | TEAE leading to permanent discontinuation: Muscle Cramps [2] | TEAE leading to permanent discontinuation: Neoplasms Benign, Malignant and Unspecified (Incl Cysts and Polyps) [2] | TEAE leading to permanent discontinuation: Rectal Haemorrhage [2] | TEAE leading to permanent discontinuation: Respiratory, Thoracic and Mediastinal Disorders [2] | TEAE: Acquired Hypothyroidism (Overall) | TEAE: Allergies to Foods, Food Additives, Drugs and Other Chemicals (Overall) | TEAE: Anorexia (Overall) | TEAE: Appetite Disorders (Overall) | TEAE: Arthropod Bite (Overall) | TEAE: Asthma NOS (Overall)
8 (1%) n (%): TEAE: Anxiety (Overall)
9 (4%) n (%): TEAE: Vomiting NOS [1]
4 (<1%) n (%): TEAE: Abdominal Pain Aggravated (Overall) | TEAE: Anal and Rectal Pains (Overall) | TEAE: Anal and Rectal Signs and Symptoms (Overall)
42 (16%) n (%): TEAE: Upper Respiratory Tract Infections - Pathogen Class Unspecified [1]
7 (1%) n (%): TEAE: Aspartate Aminotransferase Increased (Overall)
16 (6%) n (%): TEAE: Urinary Tract Infection NOS [1]
7 (3%) n (%): TEAE: Viral Infections NEC [1] | TEAE leading to permanent discontinuation: Constipation [2]
1 (1%) n (%): TEAE: Prostate Examination Abnormal* [4]
18 (7%) n (%): TEAE: Upper Respiratory Tract Infection NOS [1]
35 (7%) n (%): TEAE: Abdominal Pain NOS (Overall)
13 (2%) n (%): TEAE: Abdominal Tenderness (Overall) | TEAE: Arthralgia (Overall)
2 (1%) n (%): TEAE: Female Reproductive Tract Infections* [4]
6 (1%) n (%): TEAE: Arthropathies NEC (Overall)
5 (2%) n (%): TEAE leading to permanent discontinuation: Abdominal Pain NOS [2] | TEAE leading to permanent discontinuation: Investigations [2] | TEAE leading to permanent discontinuation: Musculoskeletal and Connective Tissue Disorders [2]
33 (13%) n (%): Total Number of Subjects with at Least One TEAE Leading to Discontinuation of Study Medication [2]
4 (2%) n (%): TEAE: White Blood Cell Analyses [1] | TEAE leading to permanent discontinuation: Diarrhoea NOS [2] | TEAE leading to permanent discontinuation: Nervous System Disorders [2]
